Key:
TNFα [1] = assay: Human PBMC LPS TNFα assay; format: cell-based; conditions: hPBMC, LPS stimulation, read-out: IRAK4 hPBMC LPS TNF-α inhibition: Average external-IC50
How it was run: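 Thawed human PBMCs (200,000/well) were pretreated 20 h at 37 °C with compound (8-point, 5-fold dilutions from 2 μM), then stimulated with 100 ng/ml LPS for 5 h. Supernatant TNFα was measured by MSD V-plex, normalized to LPS-stimulated and unstimulated controls, and IC50 obtained by free-fit 4-parameter logistic regression.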

OCI-LY10 tumor cells = assay: OCI-LY10 large B lymphoma xenograft model in C.B. 17 SCID mice; format: in vivo, mouse
Procedure: Cell Culture: The OCI-LY10 or TMD8 tumor cells were maintained as suspension in RPMI1640 medium supplemented with 10% fetal bovine serum, 100 U/mL penicillin and 100 μg/mL streptomycin at 37° C. in an atmosphere of 5% CO2 in air. The tumor cells were routinely subcultured twice weekly by trypsin-EDTA treatment. The cells growing in an exponential growth phase were harvested and counted for tumor inoculation.
Animals: C.B. 17 SCID, female, 6-8 weeks, weighing approximately 16-18 g were used. Animals were housed and maintained according to IACUC protocols.
Tumor Inoculation: Each mouse was inoculated subcutaneously at the right flank with OCI-LY10 or TMD8 tumor cells (10×10^6) in 0.2 mL of PBS with matrigel for tumor development. The treatments were started when the tumor sizes reached approximately 150-450 mm^3 for the studies.
Assignment to Groups: Before commencement of treatment, all animals were weighed and the tumor volumes were measured. Since the tumor volume can affect the compound PK/PD, mice are assigned into groups using an Excel-based randomization procedure performing stratified randomization based upon their tumor volumes.
Observation: After tumor inoculation, the animals were checked daily for morbidity and mortality. During routine monitoring, the animals were checked for any effects of tumor growth and treatments on behavior such as mobility, food and water consumption, body weight gain/loss, eye/hair matting and any other abnormalities. Mortality and observed clinical signs were recorded for individual animals in detail.
Data Collection: Tumor volumes were measured in two dimensions using a caliper, and the volumes were expressed in mm^3 using the formula: “V=(L×W×W)/2, where V is tumor volume, L is tumor length (the longest tumor dimension) and W is tumor width (the longest tumor dimension perpendicular to L).
At termination: At pre-determined time points based on study design, animals were humanely sacrificed by CO2. Blood was obtained by cardiac puncture for isolation of plasma, any residual tumor was removed and divided in 2 portions, 1 (minimal) for terminal compound exposure and 1 to determine IRAK4 and actin. Compound was determined in tumor and plasma using LC/MS with calibrated standards.

IRAK4 = IRAK4 (Homo sapiens (Human), UniProt Q9NWZ3); assay: IRAK4 MSD degradation in OCI-LY10; format: cell-based; conditions: for DC50: OCI-LY10, 4 hrs, MSD, read-out: IRAK4 MSD degradation in OCI-LY10 at 4 hrs: Average external-Abs DC50
IRAK4, sequence (Q9NWZ3 whole entry): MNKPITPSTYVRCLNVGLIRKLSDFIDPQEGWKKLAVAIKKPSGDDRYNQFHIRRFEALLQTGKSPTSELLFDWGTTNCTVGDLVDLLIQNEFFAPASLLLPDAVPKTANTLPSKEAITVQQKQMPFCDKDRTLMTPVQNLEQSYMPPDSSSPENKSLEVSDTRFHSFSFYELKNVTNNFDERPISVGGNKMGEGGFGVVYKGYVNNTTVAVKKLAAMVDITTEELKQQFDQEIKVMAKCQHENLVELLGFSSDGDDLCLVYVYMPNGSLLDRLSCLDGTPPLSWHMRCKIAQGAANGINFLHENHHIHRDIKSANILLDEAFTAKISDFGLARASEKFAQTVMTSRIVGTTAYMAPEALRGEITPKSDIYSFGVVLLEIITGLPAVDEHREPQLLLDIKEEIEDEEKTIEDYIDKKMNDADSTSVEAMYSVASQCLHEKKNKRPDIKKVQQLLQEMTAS
How it was run: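 Remaining IRAK4 quantified by electrochemiluminescent MSD sandwich assay with two anti-IRAK4 antibodies. Compounds were dosed as 8 concentrations in 1:3 steps from a 1 to 10 μM final top on OCI-LY10 cells, incubated 4 to 24 h at 37° C. under 5% CO2. DC50 fitted with a three-parameter logistic curve.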

TNFα [2] = assay: Human whole blood LPS TNFα assay; format: cell-based; conditions: 20 h pretreatment, LPS 5 h, read-out: IRAK4 human whole blood LPS TNFa inhibition: Average external-IC50
How it was run: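 Fresh human whole blood pretreated 20 h at 37 °C with compound (8-point, 5-fold dilution from 2 μM start), then stimulated with 100 ng/ml LPS (final) for 5 h. Plasma TNFα quantified by MSD V-plex, normalised to stimulated and unstimulated controls; IC50 from 4-parameter logistic fit.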

Row | Structure (SMILES) | IC50 (TNFα [1]) | antitumor effect in OCI-LY10 xenograft (OCI-LY10 tumor cells; FIG. 6 A-C) | in vivo tumor growth inhibition, combination with ibrutinib (OCI-LY10 tumor cells; OCI-LY10 (MYD88 L265P, CD79 mutant), combination of I-30 and ibrutinib at sub-optimal single agent concentrations, FIG. 13) | in vivo tumor growth of implanted OCI-LY10 (MYD88 mutant) cells (OCI-LY10 tumor cells; PO BID administration, FIG. 7) | DC50 (IRAK4) | depletion of IRAK4 in MYD88 mutant lymphoma cell lines (IRAK4; OCI-LY10 and TMD8, FIGS. 1-3 and 10) | IC50 (TNFα [2]) | antitumor activity against OCI-LY10, oral dosing (OCI-LY10 tumor cells; xenograft-bearing mice, FIG. 14)
1 | CN(CCCOCCCc1cccc2c1n(C)c(=O)n2C1CCC(=O)NC1=O)C[C@H]1CC[C@H](n2cc(NC(=O)c3coc(-c4ccnc(NCC5CC5)c4)n3)c(C(F)F)n2)CC1 (mixture of isomers) [I-30, 2-[2-(Cyclopropylmethylamino)-4-pyridyl]-N-[3-(difluoromethyl)-1-[4-[[3-[3-[1-(2,6-dioxo-3-piperidyl)-3-methyl-2-oxo-benzimidazol-4-yl]propoxy]propyl-methyl-amino]methyl]cyclohexyl]pyrazol-4-yl] oxazole-4-carboxamide] | 50 to 100 nM | causes tumor regression | synergistic in vivo tumor growth inhibition | inhibits in vivo tumor growth | < 10 nM | potent depletion of IRAK4 | 100 to 500 nM | –
2 | CN(C[C@H]1CC[C@H](n2cc(NC(=O)c3coc(-c4ccnc(NCC5CC5)c4)n3)c(C(F)F)n2)CC1)C1CCN(Cc2cccc3c2n(C)c(=O)n3C2CCC(=O)NC2=O)CC1 (some centres unmarked) [I-75, 2-(2-((cyclopropylmethyl)amino)pyridin-4-yl)-N-(3-(difluoromethyl)-1-((1r,4r)-4-(((1-((1-(2,6-dioxopiperidin-3-yl)-3-methyl-2-oxo-2,3-dihydro-1H-benzo[d]imidazol-4-yl)methyl)piperidin-4-yl)(methyl)amino)methyl)cyclohexyl)-1H-pyrazol-4-yl)oxazole-4-carboxamide] | < 50 nM | – | – | – | < 10 nM | – | > 1000 nM | dose-dependent antitumor activity

— US11352350B2, “IRAK degraders and uses thereof” (Kymera Therapeutics, Inc., priority 2018, dated 2022)
